In ChEMBL document CHEMBL1126747, “Multiple copy simultaneous search and construction of ligands in binding sites: application to inhibitors of HIV-1 aspartic proteinase” (J Med Chem, 1993):
Starred links: 1 amine or outer side, 2 acyl side, 3 side chain; linkers in the order of their positions; H or OH if unused. Non-standard residues stand in square brackets, D forms with d. Residues, ends and D or L forms follow the SMILES beside them. X1 = CC(C)C[C@H](N[*:1])[C@@H](O)C[C@H](C(=O)[*:2])C(C)C

Molecular target: Human immunodeficiency virus type 1 protease (Human immunodeficiency virus 1, UniProt Q72874)
Experiment: Binding affinity against HIV-1 aspartic proteinase was determined

Row | Structure (SMILES) | Ki [nM]
1 | CCCC[C@@H](CN[C@@H](CCCC)C(=O)N[C@@H](CCC(N)=O)C(=O)N[C@@H](CCCNC(=N)N)C(N)=O)NC(=O)[C@@H](NC(=O)[C@@H](NC(C)=O)[C@@H](C)O)[C@@H](C)CC | 780
2 | CC[C@H](C)[C@H](NC(=O)[C@@H](C[C@H](O)[C@H](CC(C)C)NC(=O)[C@H](CC(N)=O)NC(=O)[C@H](CCC(N)=O)NC(=O)[C@H](CO)NC(=O)[C@@H](N)C(C)C)C(C)C)C(=O)N[C@H](C(=O)O)C(C)C (H-VSQN[X1]IV-OH) | < 1
